This is an account of results in PubChem BioAssay (NCI).

Holding throughout (test): NCI anticancer screen, dose series, 48 h
Experiment [1] deals with SNB-19 CNS.
In experiment [2] the test system is NCI-H226 lung.
For experiment [3], the system named is HCT-116 colon.
Experiment [4] has as its system HCT-15 colon.
Experiment [5] relates to SNB-75 CNS.
Experiment [6] concerns SN12C renal.
In experiment [7] the test system is SF-539 CNS.
Experiment [8] has as its system TK-10 renal.
Experiment [9] relates to U251 CNS.
In experiment [10] the test system is BT-549 breast.
Experiment [11] concerns UO-31 renal.
Experiment [12] relates to HT29 colon.
The test system of experiment [13] is SR leukemia.
The subject of experiment [14] is NCI-H23 lung.
Experiment [15] relates to OVCAR-3 ovarian.

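Briefly, cells in 96-well plates were exposed to five compound concentrations for 48 h, and endpoints were estimated by linear interpolation. Definition used: TGI = concentration required for complete inhibition of growth.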

As for `CCOc1ccc(N/C(Cl)=C(Cl)\C(=C(\Nc2ccc(OCC)cc2)n2nnc3ccccc32)[N+](=O)[O-])cc1`, the TGI stood at 34.4 µM in [1]; 60.5 µM in [2]; 5.29 µM in [3]; 7.4 µM in [4]; 42.5 µM in experiment [5]; 23.3 µM in experiment [6]. Besides, the TGI in [7] came to 11.1 µM; in experiment [8] it was 17.1 µM; in experiment [9], 22 µM; in [10], 14 µM; in experiment [11], 23.9 µM; in [12], 3.46 µM. The TGI in [13] worked out at 5.26 µM; in experiment [14], 22.3 µM; in [15], 20.3 µM.
As for `N#Cc1c(N)[nH]c(=S)c(C#N)c1-c1ccccc1`, the TGI in [1], in experiment [2], in experiment [3], in [4], in [5] and in [6] was over 100 µM throughout. Further, the TGI in [7], in experiment [8], in [9], in [10], in [11] and in [12] was over 100 µM each time. The TGI in [13], in experiment [14] and in [15] was over 100 µM in each case.
Consider `Cc1cc(S(=O)(=O)Nc2cc(N)[nH]n2)c(SCc2nc(N)nc(N(C)C)n2)cc1Cl`, for which the TGI in experiment [1], in [2], in [3], in experiment [4], in experiment [5] and in experiment [6] was over 10 µM in each case. In addition, the TGI in [7], in experiment [8], in experiment [9], in experiment [10], in experiment [11] and in experiment [12] was over 10 µM throughout. Also, the TGI in experiment [13], in experiment [14] and in experiment [15] was over 10 µM in each case.
With `O=c1ccn(C2OC(CO)C(O)C2[Se]c2ccccc2)c(=O)[nH]1` (stereo not given), the TGI in experiment [1], in [2], in experiment [3], in experiment [4], in [5] and in experiment [6] was over 100 µM in each case. Also, the TGI is over 100 µM in experiment [7]; 0.685 µM in [8]; over 100 µM in experiment [9]; over 100 µM in experiment [10]; over 100 µM in [11]; over 100 µM in experiment [12]. The TGI in experiment [13], in experiment [14] and in experiment [15] was over 100 µM each time.
Take `CCOC(=O)CSc1nnc2cc(CN3CCCC3)c(-c3ccc(Cl)cc3)nn12`: the TGI in experiment [1], in [2], in experiment [3], in experiment [4], in experiment [5] and in [6] was over 100 µM each time. For the same compound, the TGI in experiment [7], in [8], in [9], in experiment [10], in experiment [11] and in experiment [12] was over 100 µM in each case. Also, the TGI in experiment [13], in experiment [14] and in experiment [15] was over 100 µM throughout.
As for `CNC(=O)N(CCC#N)CCCN(C(=O)NC)c1ccccc1`, the TGI in experiment [1], in experiment [2], in [3], in experiment [4], in experiment [5] and in experiment [6] was over 100 µM throughout. Besides, the TGI in experiment [7], in experiment [8], in experiment [9], in [10], in [11] and in experiment [12] was over 100 µM in each case. For the same compound, the TGI in experiment [13], in experiment [14] and in [15] was over 100 µM each time.
As for `Cc1oc2c(Cl)cc(O)c(Cl)c2c2cccc1-2`, the TGI in [1] was over 100 µM; in experiment [2], 61.6 µM; in [3] it was 36.4 µM; in experiment [4] it was 75.4 µM; in [5] it was 20.7 µM; in [6], 80.7 µM. In addition, the TGI in experiment [7] was 71.4 µM; in experiment [8], over 100 µM; in experiment [9], 64.9 µM; in experiment [10] it was 74.2 µM; in experiment [11] it was over 100 µM; in experiment [12], over 100 µM. For the same compound, the TGI was found to be 77 µM in experiment [13], 44.1 µM in [14] and 56.6 µM in [15].
As for `COc1cc(OC)c2nc(C)c3c(c2c1)NCC3`, the TGI in experiment [1] amounted to 40.7 µM; in [2] it was 19 µM; in [3] it was 12.9 µM; in experiment [4], 25.9 µM; in experiment [5], 26.6 µM; in experiment [6], 18.9 µM. Besides, the TGI in [7] is 16.4 µM; in experiment [8], 35.7 µM; in experiment [9] it was 33.4 µM; in experiment [10] it was 27.5 µM; in experiment [11], 27.5 µM; in [12] it was 15.5 µM. The TGI was 7.08 µM in experiment [13], 19.9 µM in experiment [14] and 33.4 µM in [15].
Take `O=c1oc2ccccc2c(O)c1/C=N/C(=S)NCCc1ccccc1`: the TGI in [1] is over 100 µM; in experiment [2], over 100 µM; in experiment [3], over 100 µM; in [4] it was over 100 µM; in experiment [5], over 87.5 µM; in experiment [6], over 100 µM. The TGI in experiment [7] is over 71.1 µM; in [8], over 100 µM; in [9], over 100 µM; in experiment [10], over 84.7 µM; in experiment [11] it was over 74.6 µM; in experiment [12], over 100 µM. For the same compound, the TGI in [13] was 41.7 µM; in experiment [14], over 88 µM; in experiment [15], over 100 µM.
